In ChEMBL document CHEMBL3045424, “Synthesis and antimalarial activity evaluation of some isoquine analogues” (2011):

Key:
Plasmodium falciparum [1] = assay: Antimalarial activity against chloroquine-sensitive Plasmodium falciparum 3D7 infected O positive human red blood cells assessed as dead rings and schizonts at 50 ug/ml after 40 hr by Giemsa staining; type: functional
Plasmodium falciparum [2] = assay: Antimalarial activity against chloroquine-sensitive Plasmodium falciparum 3D7 infected O positive human red blood cells assessed as dead rings and schizonts at 0.4 ug/ml after 40 hr by Giemsa staining; type: functional

Oc1ccc(NCc2ccc(Nc3ccnc4cc(Cl)ccc34)cc2O)cc1
Activity (Plasmodium falciparum [1]): 28.5%

Oc1cc(Nc2ccnc3cc(Cl)ccc23)ccc1CNc1ccc(Br)cc1F
Activity (Plasmodium falciparum [1]): 6.5%

Oc1cc(Nc2ccnc3cc(Cl)ccc23)ccc1CNC1CCNCC1
Activity (Plasmodium falciparum [1]): 33%

OCCNCc1ccc(Nc2ccnc3cc(Cl)ccc23)cc1O
Activity (Plasmodium falciparum [1]): 36.5%

NC(=O)NCc1ccc(Nc2ccnc3cc(Cl)ccc23)cc1O
Activity (Plasmodium falciparum [1]): 24%

Oc1cc(Nc2ccnc3cc(Cl)ccc23)ccc1CNc1ccc(F)cc1
Activity (Plasmodium falciparum [1]): 25.5%

O=C(O)c1ccc(NCc2ccc(Nc3ccnc4cc(Cl)ccc34)cc2O)cc1
Activity (Plasmodium falciparum [1]): 34%

CCN(CC)CCCC(C)Nc1ccnc2cc(Cl)ccc12 (stereo not drawn) [CHLOROQUINE]
Activity (Plasmodium falciparum [2]): 68.5%
